These results are taken from BindingDB's records for doi:10.1016/j.ejmech.2021.113512 (Jagiellonian University Medical College, 2021).

Molecules are shown by their SMILES. pIC50: −log10 of the molar value.

The experiment in a line: Inhibition of mouse GAT3 expressed in human HEK293 cell line assessed as inhibition of [3H]GABA uptake measured after 40 mins […].

For orientation: pIC50 means the negative decadic logarithm of the IC50, by convention in mol/L. With `CN(CCC=C1c2ccccc2CCc2ccccc21)C(CCO)C(=O)NCc1ccccc1` (configuration not stated), the negative logarithm of the IC50 (pIC50) was 4.94.
The figure for `CN(CCC=C1c2ccccc2C=Cc2ccccc21)C(CCO)C(=O)NCc1ccc(Cl)cc1` (configuration not stated) is 4.87.
The figure for `CN(CCC=C1c2ccccc2CCc2ccccc21)C(CCN)C(=O)NCc1ccccc1Cl` (configuration not stated) is 5.09; for `Cc1ccc(CNC(=O)C(CCO)N(C)CCC=C2c3ccccc3C=Cc3ccccc32)cc1` (configuration not stated) it is 4.77.
Consider `CN(CCC=C1c2ccccc2CCc2ccccc21)C(CCO)C(=O)NCc1ccccc1Cl` (configuration not stated), for which the pIC50 is 4.90.
The figure for `CN(CCC=C1c2ccccc2CCc2ccccc21)C(CCN)C(=O)NCc1ccc(F)cc1` (configuration not stated) is 5.32; for `CN(CCC=C1c2ccccc2CCc2ccccc21)C(CCO)C(=O)NCc1ccc(F)cc1` (configuration not stated) it is 4.78; for `Cc1ccc(CNC(=O)C(CCN)N(C)CCC=C2c3ccccc3CCc3ccccc32)cc1` (configuration not stated) it is 5.32.
The figure for `CN(CCC=C1c2ccccc2-c2ccccc21)C(CCO)C(=O)NCc1ccccc1Cl` (configuration not stated) is 4.79; for `CN(CCC=C1c2ccccc2-c2ccccc21)C(CCO)C(=O)NCc1ccccc1` (configuration not stated) it is 4.90; for `Cc1ccsc1C(=CCCN(C)[C@H]1CCCC[C@H]1C(=O)O)c1sccc1C` it is 3.03.
The figure for `CN(CCC=C(c1ccccc1)c1ccccc1)C(CCN)C(=O)NCc1ccccc1Cl` (configuration not stated) is 5.00; for `CN(CCC=C1c2ccccc2C=Cc2ccccc21)C(CCO)C(=O)NCc1ccccc1` (configuration not stated) it is 4.87.
On to `CN(CCC=C1c2ccccc2C=Cc2ccccc21)C(CCO)C(=O)NCc1ccccc1Cl` (configuration not stated), for which the pIC50 is 5.05.
The figure for `CC(=O)NCCC(C(=O)NCc1ccc(Cl)cc1)N(C)CCC=C1c2ccccc2CCc2ccccc21` (configuration not stated) is 4.84; for `CN(CCC=C1c2ccccc2C=Cc2ccccc21)C(CCO)C(=O)NCc1ccc(F)cc1` (configuration not stated) it is 4.91.
The figure for `Cc1ccc(CNC(=O)C(CCO)N(C)CCC=C2c3ccccc3CCc3ccccc32)cc1` (configuration not stated) is 4.90; for `CC(=O)NCCC(C(=O)NCc1ccc(C)cc1)N(C)CCC=C1c2ccccc2CCc2ccccc21` (configuration not stated) it is 5.25; for `CN(CCC=C1c2ccccc2CCc2ccccc21)C(CCN)C(=O)NCc1ccc(Cl)cc1` (configuration not stated) it is 5.29.
In the case of `CN(CCC=C1c2ccccc2-c2ccccc21)C(CCO)C(=O)NCc1ccc(F)cc1` (configuration not stated) it was 4.87; in that of `CN(CCC=C1c2ccccc2-c2ccccc21)C(CCO)C(=O)NCc1ccc(Cl)cc1` (configuration not stated), 4.99; in that of `Cc1ccc(CNC(=O)C(CCO)N(C)CCC=C2c3ccccc3-c3ccccc32)cc1` (configuration not stated), 4.70.
